The record followed here is EP0489404A2, “Method of treating shock using a potassium channel activator” (E.R. SQUIBB & SONS, INC., priority 1990, dated 1992).

In test [1] the test system is Ischemic Isolated Rat Heart. The test can be described thus: Globally ischemic isolated perfused rat heart (Langendorff), protective effect. More on the design: species or system Male Sprague-Dawley rats; LDH (Lactate Dehydrogenase Release), Reperfusion (Post-Ischemic Event): unit not given here. As to conditions: 10 µM; for FLOW (coronary flow), Pre-ischemic Event (Post Drug) / HR (Heart Rate), Pre-ischemic Event (Post Drug) / LVDP (Left Ventricular Developed Pressure), Pre-ischemic Event (Post Drug): after 10 minutes drug treatment, n = 4; for FLOW (coronary flow), Pre-ischemic Event (Post Drug) / HR (Heart Rate), Pre-ischemic Event (Post Drug) / LVDP (Left Ventricular Developed Pressure), Pre-ischemic Event (Post Drug) / DP (Double Product), Pre-ischemic Event (Post Drug): before ischemia; for DP (Double Product), Pre-ischemic Event (Post Drug) / DP (Double Product), Reperfusion (Post-Ischemic Event): HR x LVDP divided by 1000; for DP (Double Product), Pre-ischemic Event (Post Drug): lower = more cardiodepressant; for FLOW (coronary flow), Reperfusion (Post-Ischemic Event) / HR (Heart Rate), Reperfusion (Post-Ischemic Event) / LVDP (Left Ventricular Developed Pressure), Reperfusion (Post-Ischemic Event) / DP (Double Product), Reperfusion (Post-Ischemic Event) / LDH (Lactate Dehydrogenase Release), Reperfusion (Post-Ischemic Event): occlusion 25 minutes, reperfusion 30 minutes; for DP (Double Product), Reperfusion (Post-Ischemic Event): higher = more cardioprotective; for LDH (Lactate Dehydrogenase Release), Reperfusion (Post-Ischemic Event): lower = greater cardioprotection. An excerpt: Grover et al., "Dissociation of Cardiodepression from Cardioprotection with Calcium Antagonists: Diltiazem Protects Ischemic Rat Myocardium with a Lower Functional Cost as Compared with Verapamil and Nifedipine", Journal of Cardiovascular Pharmacology; pages 331-340, Vol. 14, No. 2 (1989), describe a model for testing globally ischemic, isolated rat hearts. This model is expected to be a reliable indicator of protection since the laboratory-induced isolation and ischemic event including perfusion with a cardioplegic solution, reasonably duplicates the environment and conditions for the heart during and after a shock or trauma episode. Grover et al. express the efficacy of protective agents as the amount of lactate dehydrogenase (LDH) release and post-ischemic cardiac function. Lactate dehydrogenase is an enzyme released in the heart during an ischemic event and is an index of cardiac cell necrosis. In the Grover et al. model, this is measured during reperfusion and an agent which provides for lower release levels of LDH is considered to offer greater cardioprotection since lower LDH indicates a smaller infarct size. Cardiac function is determined using the double product (DP) of heart rate times the left ventricular developed pressure (LVDP) divided by 1,000.
The lower the value for DP before the ischemic isolation of the heart for a given agent, the more cardiodepressant it is considered to be and the higher the value of DP is during reperfusion, the more cardioprotective the agent is.
Male Sprague-Dawley rats (450-550 g) were used in all experiments. The rats were anesthetized using 30 mg/kg sodium pentobarbital (i.p.). They were intubated and then treated with i.v. heparin (1000 U/kg). While being mechanically ventilated, their hearts were perfused in situ via retrograde cannulation of the aorta. The hearts were then excised and quickly moved to a Langendorff apparatus where they were perfused with Krebs-Henseleit bicarbonate buffer (112 mM […], 25 mM NaHCO₃, 5 mM KCl, 1.2 mM MgSO₄, 1 mM KH₂PO₄, 1.25 mM CaCl₂, 11.5 mM dextrose, and 2 mM pyruvate bubbled with 95% O₂ - 5% CO₂) at a constant pressure (75 mm Hg). A water filled latex balloon attached to a metal cannula was then inserted into the left ventricle and connected to a Statham pressure transducer for measurement of left ventricular pressure. The hearts were allowed to equilibrate for 15 minutes at which time end diastolic pressure (EDP) was adjusted to 5 mm Hg and this was maintained for 5 minutes. Pre-ischemia or pre-drug function, heart rate and coronary flow (extracorporeal electromagnetic flow probe, Carolina Medical Electronics, King, N.C.) were then measured. Cardiac function was determined using the double product of heart rate (HR) X left ventricular developed pressure (LVDP) divided by 1000. Cardiac temperature was maintained throughout the experiment by submerging the hearts in 37°C buffer which was allowed to accumulate in a stoppered, heated chamber.
Once the baseline measurements were taken, the hearts were treated with 10 µM cromakalim, compounds C', C'', E', E'', F', F'' (n = 4 each) or with vehicle buffer (0.01% DMSO, n = 7). All of these hearts were treated with their respective drugs or vehicle for ten minutes. At this time, post-drug cardiac function and flow were measured and then the hearts were made globally ischemic by shutting off the buffer perfusion. The ischemia was maintained for 25 minutes, the hearts were then reperfused with nondrug treated buffer. Reperfusion was maintained for a total of 30 minutes and at this time reperfusion function and flow were again determined.

Another test concerns rat aorta. The test can be described thus: Inhibition of agonist-induced constriction in rat aorta (vasodilation, non-ischemic tissue). The settings on record: concentration inhibiting agonist-induced constriction by 50 percent, normal. An excerpt:
Also included in the TABLE are the IC₅₀(m) values for rat aorta. The IC₅₀ (rat aorta) value is the concentration of the particular compound which inhibits agonist-induced constriction in rat aorta by 50 percent. Thus, the lower values indicate greater vasodilation and it should be noted that these values are for normal, i.e., non-ischemic, tissue. It can be seen that cromakalim with an IC₅₀ of 5.7 x 10⁻⁸ m is a relatively potent vasodilator in non-ischemic tissue.

For `CC1(C)Oc2ccc(C#N)cc2[C@@H](NC(=NC#N)Nc2ccccc2)[C@@H]1O` [C'"], in test [1], the “FLOW (coronary flow), Pre-ischemic Event (Post Drug)” value (shortened to “FLOW (coronary flow) … (Post Drug)”) is listed as 15.2; the HR (Heart Rate), Pre-ischemic Event (Post Drug) amounted to 244 beats/min; the “LVDP (Left Ventricular Developed Pressure), Pre-ischemic Event (Post Drug)” value (“LVDP … (Post Drug)” below) turned out to be 134 mmHg; the “DP (Double Product), Pre-ischemic Event (Post Drug)” value (from here on “DP (Double Product) … (Post Drug)”) is 32.7. Further, in test [1], the “FLOW (coronary flow), Reperfusion (Post-Ischemic Event)” value (from here on “FLOW (coronary flow), Reperfusion”) came to 13.2; the HR (Heart Rate), Reperfusion (Post-Ischemic Event) was 244 beats/min; the “LVDP (Left Ventricular Developed Pressure), Reperfusion (Post-Ischemic Event)” value (from here on “LVDP … (Post-Ischemic Event)”) is listed as 74 mmHg; the “DP (Double Product), Reperfusion (Post-Ischemic Event)” value (shortened to “DP (Double Product), Reperfusion”) was 18.2. The “LDH (Lactate Dehydrogenase Release), Reperfusion (Post-Ischemic Event)” value (from here on “LDH (Lactate Dehydrogenase Release)”) in test [1] was 10.41. Further, in test [1] (listed as C"), the “FLOW (coronary flow) … (Post Drug)” value is 20.4; the HR (Heart Rate), Pre-ischemic Event (Post Drug) turned out to be 250 beats/min; the “LVDP … (Post Drug)” value is reported as 121 mmHg; the “DP (Double Product) … (Post Drug)” value amounted to 29.8. Further, in test [1] (listed as C"), the “DP (Double Product), Reperfusion” value is reported as 14.8; the “FLOW (coronary flow), Reperfusion” value came to 10.1; the HR (Heart Rate), Reperfusion (Post-Ischemic Event) is 240 beats/min; the “LVDP … (Post-Ischemic Event)” value is 62 mmHg. The “LDH (Lactate Dehydrogenase Release)” value in test [1] (listed as C") is given as 9.88. In the test with rat aorta, the IC50 (commonly the midpoint of a concentration-inhibition curve) was 1370 nM. The concentration for half-maximal inhibition (IC50) in the test on rat aorta (listed as C") amounted to 447 nM.
Regarding `CC1(C)Oc2ccc(C#N)cc2C(N2CCCC2=O)C1O` (stereo not shown) [Cromakalim, cromakalim, reference compound], in test [1], the “FLOW (coronary flow) … (Post Drug)” value is 23.9; the HR (Heart Rate), Pre-ischemic Event (Post Drug) turned out to be 250 beats/min; the “LVDP … (Post Drug)” value is listed as 131 mmHg; the “DP (Double Product) … (Post Drug)” value is on record as 33.0. Besides, in test [1], the “FLOW (coronary flow), Reperfusion” value came out at 13.9; the HR (Heart Rate), Reperfusion (Post-Ischemic Event) amounted to 234 beats/min; the “LVDP … (Post-Ischemic Event)” value is reported as 87 mmHg; the “DP (Double Product), Reperfusion” value came out at 20.5. In addition, in test [1], the “LDH (Lactate Dehydrogenase Release)” value is 8.89. This compound also displayed a concentration for half-maximal inhibition (IC50) with rat aorta (Rattus norvegicus) of 57 nM.
Regarding `CC1(C)Oc2ccc(C#N)cc2[C@@H](NC(=S)Nc2ccccc2)[C@@H]1O` [E'], in test [1], the “FLOW (coronary flow) … (Post Drug)” value worked out at 15.3; the HR (Heart Rate), Pre-ischemic Event (Post Drug) stood at 236 beats/min; the “LVDP … (Post Drug)” value came to 141 mmHg; the “DP (Double Product) … (Post Drug)” value is listed as 32.75. For the same compound, in test [1], the “FLOW (coronary flow), Reperfusion” value came to 13.4; the HR (Heart Rate), Reperfusion (Post-Ischemic Event) was found to be 229 beats/min; the “LVDP … (Post-Ischemic Event)” value was 55 mmHg; the “DP (Double Product), Reperfusion” value was determined as 14.83. Moreover, the “LDH (Lactate Dehydrogenase Release)” value in test [1] amounted to 13.46. For the same compound, in test [1] (listed as E"), the “FLOW (coronary flow) … (Post Drug)” value is given as 24.8; the HR (Heart Rate), Pre-ischemic Event (Post Drug) was 234 beats/min; the “LVDP … (Post Drug)” value worked out at 128 mmHg; the “DP (Double Product) … (Post Drug)” value is given as 30.06. Besides, in test [1] (listed as E"), the “DP (Double Product), Reperfusion” value was determined as 18.52; the “FLOW (coronary flow), Reperfusion” value is 17.56; the HR (Heart Rate), Reperfusion (Post-Ischemic Event) turned out to be 230 beats/min; the “LVDP … (Post-Ischemic Event)” value is 81 mmHg. Further, in test [1] (listed as E"), the “LDH (Lactate Dehydrogenase Release)” value was determined as 8.77. Moreover, the concentration for half-maximal inhibition (IC50) in the test with rat aorta came out at 1710 nM. The concentration for half-maximal inhibition (IC50) in the test with rat aorta (listed as E") is 805 nM.
On to `CC1(C)Oc2ccc(C#N)cc2[C@@H](NC(=NC#N)Oc2ccccc2)[C@@H]1O` [F'], for which, in test [1], the “FLOW (coronary flow) … (Post Drug)” value is 16.0; the HR (Heart Rate), Pre-ischemic Event (Post Drug) came to 238 beats/min; the “LVDP … (Post Drug)” value stood at 128 mmHg; the “DP (Double Product) … (Post Drug)” value was found to be 30.5. For the same compound, in test [1], the “FLOW (coronary flow), Reperfusion” value was 10.4; the HR (Heart Rate), Reperfusion (Post-Ischemic Event) stood at 212 beats/min; the “LVDP … (Post-Ischemic Event)” value is 28 mmHg; the “DP (Double Product), Reperfusion” value is reported as 6.2. Besides, the “LDH (Lactate Dehydrogenase Release)” value in test [1] amounted to 21.7. Also, in test [1] (listed as F"), the “FLOW (coronary flow) … (Post Drug)” value came to 28.3; the HR (Heart Rate), Pre-ischemic Event (Post Drug) stood at 239 beats/min; the “LVDP … (Post Drug)” value came to 159 mmHg; the “DP (Double Product) … (Post Drug)” value is given as 38.02. Further, in test [1] (listed as F"), the “DP (Double Product), Reperfusion” value is on record as 14.72; the “FLOW (coronary flow), Reperfusion” value is listed as 13.92; the HR (Heart Rate), Reperfusion (Post-Ischemic Event) was found to be 247 beats/min; the “LVDP … (Post-Ischemic Event)” value was determined as 59 mmHg. For the same compound, in test [1] (listed as F"), the “LDH (Lactate Dehydrogenase Release)” value amounted to 10.65. For the same compound, the 50% inhibitory concentration (IC50) in the test with rat aorta is more than 100000 nM. The compound also displayed an IC50 with rat aorta (listed as F") of 4900 nM.
